From ChEMBL document CHEMBL4043251, “Synthesis of conjugates between oxazolidinone antibiotics and a pyochelin analogue” (Bioorg Med Chem Lett, 2017)
Activity calls are given as the source filed them. The rule behind the calls is not given here.

What was measured:
Pseudomonas aeruginosa = experiment: Antibacterial activity against Pseudomonas aeruginosa PAO1 by disc diffusion method; format: functional
[1] = Solubility of the compound in physiological medium; format: physicochemical
[2] = Solubility of the compound in aqueous medium; format: physicochemical; settings: buffer

solubility [1] | solubility [2] | Structure (SMILES) | Activity (Pseudomonas aeruginosa)
Insoluble | – | CC(=O)NC[C@H]1CN(c2ccc(N3CCN(C(=O)CCC(=O)NCCCN4C([C@H]5CSC(c6ccccc6O)=N5)SC[C@H]4C(=O)O)CC3)c(F)c2)C(=O)O1 (stereo partly drawn) | inactive
Insoluble | Insoluble | CC(=O)NC[C@H]1CN(c2ccc(N3CCN(C(=O)CNC(=O)OCCOCCOCC(=O)NCCCN4C([C@H]5CSC(c6ccccc6O)=N5)SC[C@H]4C(=O)O)CC3)c(F)c2)C(=O)O1 (stereo partly drawn) | inactive
Insoluble | Insoluble | CC(=O)NC[C@H]1CN(c2ccc(N3CCN(C(=O)OCCOCCOCC(=O)NCCCN4C([C@H]5CSC(c6ccccc6O)=N5)SC[C@H]4C(=O)O)CC3)c(F)c2)C(=O)O1 (stereo partly drawn) | inactive
